Measured values published in ChEMBL document CHEMBL1139820, “Synthesis of new 7-chloroquinolinyl thioureas and their biological investigation as potential antimalarial and anticancer agents” (Bioorg Med Chem Lett, 2007).

Experiments:
[1] = test system: HeLa; experiment: Cytotoxicity against human HeLa cells assessed as cell survival after 7 hrs by MTT assay; type: functional, cell-based
[2] = Selectivity index, Ratio of IC50 for human HeLa cells to IC50 for Plasmodium falciparum D10; type: functional
[3] = test system: Plasmodium falciparum; experiment: Antiplasmodial activity against chloroquine-sensitive Plasmodium falciparum D10 in LDH reporter assay after 48 hrs; type: functional, organism-based; settings: D10, 48 h

Row | IC50 [3] | SMILES | IC50 [1] | Ratio IC50 [2]
1 | 2200 nM | CCN(CC)CCCNC(=S)Nc1ccnc2cc(Cl)ccc12 | 49.2 µM | 22.355
2 | 1200 nM | CN(C)CCCNC(=S)Nc1ccnc2cc(Cl)ccc12 | 48.5 µM | 40.375
3 | > 2620 nM | CCSc1nnc(NC(=S)Nc2ccnc3cc(Cl)ccc23)s1 | – | –
4 | > 3500 nM | OCCNC(=S)Nc1ccnc2cc(Cl)ccc12 | > 50 µM | >14.28

The next lines start with the compound.

Row | SMILES | IC50 [3] | IC50 [1] | Ratio IC50 [2]
5 | NCCNC(=S)Nc1ccnc2cc(Cl)ccc12 | 3300 nM | 18 µM | 5.4581
6 | S=C(Nc1ccnc2cc(Cl)ccc12)N1CCNCC1 | > 3260 nM | – | –
7 | CCN1CCN(C(=S)Nc2ccnc3cc(Cl)ccc23)CC1 | 1800 nM | > 50 µM | >27.77
8 | S=C(Nc1ccnc2cc(Cl)ccc12)N1CCN(c2ccccc2)CC1 | > 2610 nM | 43.6 µM | –
9 | CCOC(=O)N1CCN(C(=S)Nc2ccnc3cc(Cl)ccc23)CC1 | > 2600 nM | 40.1 µM | –
10 | S=C(Nc1ccnc2cc(Cl)ccc12)N1CCN(CC2CCCCC2)CC1 | > 2400 nM | > 50 µM | >20.83
11 | S=C(Nc1ccnc2cc(Cl)ccc12)N1CCN(Cc2ccccc2)CC1 | > 2500 nM | 28.9 µM | –
12 | CCN(CC)CCCC(C)Nc1ccnc2cc(Cl)ccc12 (configuration not stated) [CHLOROQUINE] | – | 9.67 µM | –
